From ChEMBL document CHEMBL1157403, “Lanostane-type triterpenoids from the roots of Kadsura coccinea” (2008) come the findings set out here.

The experiment has as its system HL-60. As to the kind of experiment: Antiproliferative activity against human HL60 cells after 3 days by trypan blue staining. In kind it is functional. The conditions noted are these: HL-60, 72 h.
Take `O=c1[nH]cc(F)c(=O)[nH]1` [FLUOROURACIL]: the GI50 was 3.8 µM.

In turn, `C=C(C)[C@@H]1CC=C2[C@H](CC[C@]3(C)[C@@H]([C@H](C)CC(=O)CC(C)C)CC[C@@]23C)[C@@]1(C)CCC(=O)O` [SECO-COCCINIC ACID A] displayed a GI50 of 6.8 µM.

For `C=C(C)[C@@H]1CC=C2[C@H](CC[C@]3(C)[C@@H]([C@H](C)CC(=O)C=C(C)C)CC[C@@]23C)[C@@]1(C)CCC(=O)O` [SECO-COCCINIC ACID B], growth was halved (GI50) at 13.3 µM.

In turn, `C=C(C)[C@@H]1CC=C2[C@H](CC[C@]3(C)[C@@H]([C@H](C)CC(=O)CC(C)(C)O)CC[C@@]23C)[C@@]1(C)CCC(=O)O` [SECO-COCCINIC ACID C] gave a GI50 of 12.1 µM.

Compound `C=C(C)[C@H](O)CC[C@@H](C)[C@H]1CC[C@@]2(C)C3=CC[C@@H](C(=C)C)[C@](C)(CCC(=O)O)[C@@H]3CC[C@]12C` [SECO-COCCINIC ACID E] showed a GI50 of 42.1 µM.

A word on the GI50: it is the concentration at which growth is held to half of that of the control. High values mean lower sensitivity of the cells, low ones greater sensitivity of the cells.
